Several values for one entry are separate records, joined by “and”; a condition that tells them apart may be missing. Identical values can stand only once.
Key:
[1] = test system: lactose transport in K. lactis MS425/pKR1B; assay: Lactose transport ([14C]lactose uptake) in K. lactis; type: cell-based
Method: (§1) After warming the cells to 23° C. the competing compound was added to a final concentration of 50 mM. Thirty seconds later [^14 C] lactose was added to a final concentration of 1 mM and 100 μl samples were filtered 1 and 2 minutes later. […] For K. lactis the experiment was done twice and for S. cerevisiae it was done three times. Averaged values with or without a standard deviation are shown.
(§2) Finally, the lactose transport in LAC^+ S. cerevisiae was determined to be an energy-dependent process, as it is in K. lactis. To measure energy dependence, cells were pre-incubated for 20 minutes with 1 mM 2,4-dinitrophenol at ambient temperature.
(§3) The kinetics of lactose transport were measured to determine if Lac^+ S. cerevisiae transported measurable quantities of lactose and to determine the time scale over which the apparent initial velocity of transport could be measured. Lactose transport was measured using the following procedure. Saturated cultures of cells were obtained by growth at 30° C. in medium A: 10 g yeast extract, 20 g peptone, 100 ml of 20% lactic acid (titrated to pH 4.5 with solid sodium hydroxide) and 100 ml of 20% glycerol per liter, or medium B: 3.4 g yeast nitrogen base (Difco, without amino acids or ammonium sulfate), 10 g ammonium sulfate, 3 g 20 mg adenine, 20 mg uracil, 20 mg leucine, 20 mg histidine, 20 mg tryptophan, 20 mg methionine and 20 mg lysine per liter. Strain MS425/pKR1B of K. lactis was grown on medium A containing 10 μg G418/ml, while S. cerevisiae strains L1582/pKR1B, and YNN27/pKR1B were grown on the same medium containing 200 μg […] Strains L1582 or YNN27 transformed with either plasmid A, B, or C (autonomous or integrated) were grown on medium B.
(§4) This procedure is a modification of the procedure described by Serrano, R. (1977) European J. of Biochem. 80:97-10^2. To prepare cells for transport measurements, a saturated culture was diluted into fresh medium and grown from […]. Cells were harvested by filtration (45 mm dia, 0.45 μm Millipore type HA), washed four times with 10 ml of ice cold distilled water, and then resuspended in 100 mM tartaric acid (titrated to pH 4.2 with sodium hydroxide) at 60 to 100 A600 /ml. At this point cells could be stored at 4° C. for up to 24 hours without loss of transport activity.
(§5) To measure lactose transport, a sample of cells, 0.3 to 1.0 ml, was warmed to 23° C. for 2 min, lactose was added to the desired concentrations and at zero time 0.luCi of D-Glucose-[^14C ]lactose (CFA 278; 58 mCi/mM; Amersham Corp., Lexington, Mass.) was added per 0.3 ml of cells. At the indicated times 100 μl samples were filtered on 25 mm diameter Nuclepore filters (0.4μm pore size; Nuclepore Corp., Pleasanton, Cal.). The filter was washed twice with 5 ml of ice cold distilled water, dried and counted in 4 ml of a toluene-based cocktail containing 250 ml of triton X-100 and 6.5 g p-terphenyl per liter using a liquid scintillation counter. The specific activity, cpm/pmole of lactose, of each reaction was determined by counting a 10 μl sample. Data are expressed as pmoles of intracellular lactose per A600. Background transport was measured using cells that were heated for 3 min at 90° C. Typical background was 25 to 30 cpm.
The lactose transport in Lac^+ S. cerevisiae was determined to be an energy-dependent process, as it is in K. lactis. To measure energy dependence, cells were pre-incubated with 1 mM […] for 20 minutes at ambient temperature and then the uptake of 1 mM ^14 C-lactose was measured. Lactose transport was inhibited 91% both in the Lac^+ strain of S. cerevisiae , L1582/pKR1B-LAC4-1, and in the K. lactis strain MS425/pKR1B.

[2] = test system: lactose transport in S. cerevisiae L1582/pKR1B-LAC4-1; assay: Lactose transport ([14C]lactose uptake) in Lac+ S. cerevisiae; type: cell-based; conditions: for inhibition of lactose transport (stereospecificity, in words): summary of Table 1 (L1582/pKR1B-LAC4-1 and K. lactis)
Method: The rate of lactose transport as a function of substrate concentration is shown for two experiments using Lac^+ L1582/pKR1B-LAC4-1 (.smallcircle.--.smallcircle.) and Lac^+ L1582/pKR1B-LAC4-Δ1087(.quadrature.--.quadrature.). For each concentration of lactose, the rate of transport represented the average of samples taken at 30, 60, and 90 seconds.
as §1, §2, §3, §4, §5
The lactose transport in Lac^+ S. cerevisiae was determined to be an energy-dependent process, as it is in K. lactis. To measure energy dependence, cells were pre-incubated with 1 mM […] for 20 minutes at ambient temperature and then the uptake of 1 mM ^14 C-lactose was measured. […]

[3] = pre-incubated 20 minutes with 1 mM at ambient temperature
[4] = Kluyveromyces lactis, competing compound 50 mM, [14C]lactose 1 mM, 23° C., samples at 1 and 2 minutes, average of two experiments
[5] = Saccharomyces cerevisiae, competing compound 50 mM, [14C]lactose 1 mM, 23° C., samples at 1 and 2 minutes, average of three experiments with standard deviation

Row | Structure (SMILES) | inhibition of lactose transport (stereospecificity, in words) [2] | inhibition at 50000 µM [1, 4] [%] | inhibition at 50000 µM [2, 5] [%] | also measured
1 | O=[N+]([O-])c1ccc(O)c([N+](=O)[O-])c1 [2,4-dinitrophenol] |  |  |  | inhibition at 1000 µM ([1]; Kluyveromyces lactis, read-out: Lactose transport inhibited (energy dependence), K. lactis MS425/pKR1B): 91%; Lactose transport inhibition in words (energy dependence), K. lactis MS425/pKR1B [1, 3]: inhibited almost completely; inhibition at 1000 µM ([2]; Saccharomyces cerevisiae, read-out: Lactose transport inhibited (energy dependence), S. cerevisiae L1582/pKR1B-LAC4-1): 91%; Lactose transport inhibition in words (energy dependence), S. cerevisiae L1582/pKR1B-LAC4-1 [2, 3]: inhibited almost completely
2 | O=C[C@@H](O)[C@H](O[C@@H]1O[C@H](CO)[C@H](O)[C@H](O)[C@H]1O)[C@H](O)CO [3-0-β-D-galactosyl-D-arabinose] | strongest inhibition |  |  | % Inhibition of Lactose Transport, K. lactis MS425/pKR1B ([1]; competing compound 50 mM, [14C]lactose 1 mM, 23° C., samples at 1 and 2 minutes, average of two experiments): 93%; % Inhibition of Lactose Transport, S. cerevisiae L1582/pKR1B-LAC4-1 ([2]; competing compound 50 mM, [14C]lactose 1 mM, 23° C., samples at 1 and 2 minutes, average of three experiments with standard deviation): 90 ± 6%
3 | O=[N+]([O-])c1ccc(O[C@H]2O[C@H](CO)[C@H](O)[C@H](O)[C@H]2O)cc1 [4-nitrophenyl-α-D-galactoside] | inhibited only weakly |  |  | 
4 | OC[C@H]1O[C@H](OC[C@H]2OC(O)[C@H](O)[C@@H](O)[C@@H]2O)[C@H](O)[C@@H](O)[C@H]1O (stereo partly drawn) [6-0-α-D-galactosyl-D-glucose] | inhibited only weakly | 10 | 10.7 ± 8 | 
5 | O=C[C@H](O)[C@@H](O)[C@@H](O)[C@H](O)CO [D-galactose] | only moderate inhibition | 26 | 24.3 ± 7.2 | 
6 | OC[C@H]1O[C@@H](S[C@@H]2O[C@H](CO)[C@H](O)[C@H](O)[C@H]2O)[C@H](O)[C@@H](O)[C@H]1O [D-galactosyl-1-thio-β-D-galactoside] | only moderate inhibition | 28 | 4.9 ± 4 | 
7 | OC[C@H]1O[C@@H](O[C@H]2[C@H](O)[C@@H](O)C(O)O[C@@H]2CO)[C@H](O)[C@@H](O)[C@H]1O (stereo partly drawn) [lactose, 4-0-beta-D-galactosyl-D-glucose] |  |  |  | Km ([1]; K. lactis strain MS425, read-out: apparent Km for lactose transport, K. lactis strain MS425): 670 µM; Km ([2]; two experiments of FIG. 4: Lac+ L1582/pKR1B-LAC4-1 and Lac+ L1582/pKR1B-LAC4-Δ1087, rates averaged from 30, 60 and 90 seconds, read-out: apparent Km for lactose transport, Lac+ S. cerevisiae): 970 µM and 1090 µM
